Numbers after ± are expanded uncertainties.
Settings: Crystal; visual observation

Row | Normal melting temperature [°C] | Structure (SMILES)
1 | -20.60 ± 0.39 | CCC(=O)O [propanoic acid]
2 | 12.8 ± 0.39 | C=CC(=O)O [propenoic acid]

Reference: the NIST ThermoML archive (doi:10.1021/je201193d)
